Legend:
[1] = Inhibition of human recombinant full length AURORA-A I31F mutant using kemptide as substrate incubated for 40 mins in presence of [gamma-33P]ATPand 10 uM ATP by radiometric scintillation counting analysis
[2] = n-Octanol-water partition coefficient, logD of compound at 1 mg measured after 48 hrs under shaking condition by LC-MS analysis; format: physicochemical
[3] = Half life in human liver microsomes measured upto 45 mins in presence of NADPH by LC-MS analysis; format: ADME, Microsome
[4] = Intrinsic clearance in human liver microsomes measured upto 45 mins in presence of NADPH by LC-MS analysis; format: ADME, Microsome; conditions: read-out: CLH
[5] = molecular target: Serine/threonine-protein kinase Chk2 (Homo sapiens, UniProt O96017, R145W); test: Inhibition of recombinant human CHK2 R145W mutant (5 to end residues) using KKKVSRSGLYRSP as substrate incubated for 40 mins in presence of [gamma-33ATP] by radiometric scintillation counting analysis
[6] = molecular target: Casein kinase I isoform gamma-3 (Homo sapiens, UniProt Q9Y6M4, E302D/K91E/R174G); test: Inhibition of recombinant human CK1gamma3 K91E/R174G/E302D triple mutant (1 to 330 residues) using KRRRALS(p)VAS as substrate incubated for 40 mins in presence of [gamma-33ATP] by radiometric scintillation counting analysis
[7] = molecular target: Serine/threonine-protein kinase Nek3 (Homo sapiens, UniProt P51956); test: Inhibition of recombinant full-length human NEK3 using myelin basic protein as substrate measured after 40 mins in presence of [gamma33P]ATP by radiometric scintillation counting analysis
[8] = molecular target: Hepatocyte growth factor receptor (Homo sapiens, UniProt P08581, A1209G/V1290L); test: Inhibition of recombinant human MET A1209G/V1290L double mutant (974 to end residues) using KKKGQEEEYVFIE as substrate incubated for 40 mins in presence of [gamma-33ATP by radiometric scintillation counting analysis
[9] = molecular target: [Pyruvate dehydrogenase (acetyl-transferring)] kinase isozyme 4, mitochondrial (Homo sapiens, UniProt Q16654); test: Inhibition of recombinant human full length PDHK4 using KKKYHGHSMSDPG as substrate incubated for 40 mins in presence of [gamma33P]ATP by radiometric scintillation counting analysis
[10] = molecular target: Serine/threonine-protein kinase PAK 1 (Homo sapiens, UniProt Q13153); test: Inhibition of recombinant human PAK1 (150 to end residues) using RRRLSFAEPG as substrate measured after 40 mins in presence of [gamma33P]ATP by radiometric scintillation counting analysis
[11] = molecular target: Epidermal growth factor receptor (Homo sapiens, UniProt P00533, T790M); test: Inhibition of recombinant human EGFR T790M mutant (696 to end residues) using poly(Glu, Tyr) 4:1 as substrate after 40 mins in presence of [gamma-33ATP] by radiometric scintillation counting analysis
[12] = Inhibition of recombinant human EphB2 A848S/K918E double mutant (560 to end residues) using poly(Glu, Tyr) 4:1 as substrate after 40 mins in presence of [gamma-33ATP] by radiometric scintillation counting analysis
[13] = molecular target: Fibroblast growth factor receptor 2 (Homo sapiens, UniProt P21802); test: Inhibition of recombinant human FGFR2 (456 to 770 residues) using poly(Glu, Tyr) 4:1 as substrate after 40 mins in presence of [gamma-33ATP] by radiometric scintillation counting analysis
[14] = molecular target: Macrophage colony-stimulating factor 1 receptor (Homo sapiens, UniProt P07333, Y969C); test: Inhibition of recombinant human FMS Y969C mutant (538 to end residues) using EEEEYEEEEEEYY as substrate after 40 mins in presence of [gamma-33ATP] by radiometric scintillation counting analysis
[15] = molecular target: Tyrosine-protein kinase HCK (Homo sapiens, UniProt P08631); test: Inhibition of human HCK recombinant (230 to 497 residues) using […] as substrate after 40 mins by [gamma-33ATP] radiometric assay
Insulin receptor = Insulin receptor (Homo sapiens, UniProt P06213); test: Inhibition of human recombinant IR (1005 to 1310 residues) using KKSRGDYMTMQIG as substrate after 40 mins by [gamma-33ATP] by radiometric scintillation counting analysis
[16] = molecular target: Mitogen-activated protein kinase 8 (Homo sapiens, UniProt P45983); test: Inhibition of recombinant full length human JNK1alpha1 using ATF2 as substrate after 40 mins by [gamma-33ATP] by radiometric scintillation counting analysis
[17] = Inhibition of recombinant full length human JNK2alpha2 S51N mutant using ATF2 as substrate after 40 mins by [gamma-33ATP] by radiometric scintillation counting analysis
[18] = molecular target: Serine/threonine-protein kinase MAK (Homo sapiens, UniProt P20794); test: Inhibition of recombinant human MAK using RRRFRPASPLRGP as substrate after 120 mins in presence of [gamma-33ATP] by radiometric scintillation counting analysis
[19] = molecular target: Tyrosine-protein kinase FRK (Homo sapiens, UniProt P42685); test: Inhibition of recombinant human PTK5 (218 to end residues) using GGEEEEYFELVKK as substrate incubated for 40 mins in presence of [gamma33P]ATP by radiometric scintillation counting analysis
[20] = molecular target: Proto-oncogene tyrosine-protein kinase receptor Ret (Homo sapiens, UniProt P07949, V804L); test: Inhibition of recombinant human Ret V804L mutant (658 to end residues) using KKKVSRSGLYRSP as substrate incubated for 40 mins in presence of [gamma33P]ATP by radiometric scintillation counting analysis
[21] = molecular target: Serine/threonine-protein kinase SBK1 (Homo sapiens, UniProt Q52WX2); test: Inhibition of recombinant full-length human SBK1 using KKLRRTLSVA as substrate incubated for 120 mins in presence of [gamma33P]ATP by radiometric scintillation counting analysis
[22] = molecular target: Serine/threonine-protein kinase SIK3 (Homo sapiens, UniProt Q9Y2K2); test: Inhibition of recombinant human SIK3 (1 to 307 residues) using KKKVSRSGLYRSP as substrate incubated for 40 mins in presence of [gamma33P]ATP by radiometric scintillation counting analysis
[23] = molecular target: Serine/threonine-protein kinase 33 (Homo sapiens, UniProt Q9BYT3); test: Inhibition of recombinant full-length human STK33 using myelin basic protein as substrate incubated for 40 mins in presence of [gamma33P]ATP by radiometric scintillation counting analysis
[24] = molecular target: Serine/threonine-protein kinase tousled-like 2 (Homo sapiens, UniProt Q86UE8); test: Inhibition of recombinant human TLK2 (387 to end residues) using casein as substrate incubated for 40 mins in presence of [gamma33P]ATP by radiometric scintillation counting analysis
[25] = molecular target: Testis-specific serine/threonine-protein kinase 2 (Homo sapiens, UniProt Q96PF2); test: Inhibition of recombinant full-length human TSSK2 using KKKVSRSGLYRSP as substrate incubated for 40 mins in presence of [gamma33P]ATP by radiometric scintillation counting analysis
[26] = Inhibition of human PIP5K1

Chain of Serine/threonine-protein kinase Nek3 (P51956 whole entry): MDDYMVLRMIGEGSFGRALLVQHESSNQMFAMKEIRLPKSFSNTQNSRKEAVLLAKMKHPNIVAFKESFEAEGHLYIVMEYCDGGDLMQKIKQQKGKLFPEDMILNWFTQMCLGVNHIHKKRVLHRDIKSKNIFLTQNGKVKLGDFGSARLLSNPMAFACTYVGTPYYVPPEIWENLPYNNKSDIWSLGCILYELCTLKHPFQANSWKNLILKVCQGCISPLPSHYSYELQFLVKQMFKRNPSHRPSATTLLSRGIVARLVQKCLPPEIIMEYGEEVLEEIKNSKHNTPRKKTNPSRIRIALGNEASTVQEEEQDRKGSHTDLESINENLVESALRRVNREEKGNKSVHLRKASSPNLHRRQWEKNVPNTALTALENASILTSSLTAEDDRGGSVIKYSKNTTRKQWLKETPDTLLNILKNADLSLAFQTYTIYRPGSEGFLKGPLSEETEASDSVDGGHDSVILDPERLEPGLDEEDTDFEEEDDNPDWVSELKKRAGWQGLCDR
Chain of Epidermal growth factor receptor (P00533 25-1210 T790M limits assumed): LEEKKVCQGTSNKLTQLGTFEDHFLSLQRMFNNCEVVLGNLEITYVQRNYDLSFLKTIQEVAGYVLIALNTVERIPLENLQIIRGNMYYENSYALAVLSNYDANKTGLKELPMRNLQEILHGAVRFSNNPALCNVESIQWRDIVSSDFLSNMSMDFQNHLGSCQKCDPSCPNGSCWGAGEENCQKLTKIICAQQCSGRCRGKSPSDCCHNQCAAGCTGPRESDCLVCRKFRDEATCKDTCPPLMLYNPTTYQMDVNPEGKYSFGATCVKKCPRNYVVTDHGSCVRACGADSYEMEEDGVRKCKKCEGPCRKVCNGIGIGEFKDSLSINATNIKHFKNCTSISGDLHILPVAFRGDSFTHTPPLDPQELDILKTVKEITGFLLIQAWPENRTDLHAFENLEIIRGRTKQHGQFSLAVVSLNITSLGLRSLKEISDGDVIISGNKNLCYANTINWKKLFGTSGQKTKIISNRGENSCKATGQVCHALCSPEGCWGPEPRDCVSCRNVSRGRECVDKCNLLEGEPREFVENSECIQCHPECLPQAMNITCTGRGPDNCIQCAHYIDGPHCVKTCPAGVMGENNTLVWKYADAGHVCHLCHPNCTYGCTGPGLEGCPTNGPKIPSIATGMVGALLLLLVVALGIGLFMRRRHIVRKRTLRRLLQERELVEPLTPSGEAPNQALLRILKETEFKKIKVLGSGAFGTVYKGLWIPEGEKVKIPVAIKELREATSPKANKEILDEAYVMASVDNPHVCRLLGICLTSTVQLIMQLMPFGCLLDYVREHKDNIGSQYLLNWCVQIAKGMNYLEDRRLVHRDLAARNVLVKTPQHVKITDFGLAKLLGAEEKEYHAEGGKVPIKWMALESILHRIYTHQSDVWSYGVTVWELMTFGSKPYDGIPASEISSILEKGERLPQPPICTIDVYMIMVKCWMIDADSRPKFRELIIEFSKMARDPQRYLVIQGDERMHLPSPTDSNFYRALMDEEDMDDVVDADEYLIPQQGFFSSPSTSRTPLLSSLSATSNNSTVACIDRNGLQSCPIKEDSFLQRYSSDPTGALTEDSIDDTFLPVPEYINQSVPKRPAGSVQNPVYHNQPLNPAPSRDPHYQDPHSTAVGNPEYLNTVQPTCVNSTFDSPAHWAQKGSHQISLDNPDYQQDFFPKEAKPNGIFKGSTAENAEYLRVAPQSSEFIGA
Chain of [Pyruvate dehydrogenase (acetyl-transferring)] kinase isozyme 4, mitochondrial (Q16654 whole entry): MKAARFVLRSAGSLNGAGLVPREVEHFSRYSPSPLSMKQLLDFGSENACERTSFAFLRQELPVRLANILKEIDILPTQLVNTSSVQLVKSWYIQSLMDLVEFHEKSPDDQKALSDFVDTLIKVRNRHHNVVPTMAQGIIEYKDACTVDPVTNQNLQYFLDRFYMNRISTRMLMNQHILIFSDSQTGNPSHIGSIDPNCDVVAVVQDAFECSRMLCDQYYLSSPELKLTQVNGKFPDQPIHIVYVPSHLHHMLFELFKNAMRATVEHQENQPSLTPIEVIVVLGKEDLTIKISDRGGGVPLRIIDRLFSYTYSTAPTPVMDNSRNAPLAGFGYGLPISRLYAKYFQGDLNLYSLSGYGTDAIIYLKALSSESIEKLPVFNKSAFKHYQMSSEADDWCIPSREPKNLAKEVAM
Chain of Serine/threonine-protein kinase PAK 1 (Q13153 whole entry): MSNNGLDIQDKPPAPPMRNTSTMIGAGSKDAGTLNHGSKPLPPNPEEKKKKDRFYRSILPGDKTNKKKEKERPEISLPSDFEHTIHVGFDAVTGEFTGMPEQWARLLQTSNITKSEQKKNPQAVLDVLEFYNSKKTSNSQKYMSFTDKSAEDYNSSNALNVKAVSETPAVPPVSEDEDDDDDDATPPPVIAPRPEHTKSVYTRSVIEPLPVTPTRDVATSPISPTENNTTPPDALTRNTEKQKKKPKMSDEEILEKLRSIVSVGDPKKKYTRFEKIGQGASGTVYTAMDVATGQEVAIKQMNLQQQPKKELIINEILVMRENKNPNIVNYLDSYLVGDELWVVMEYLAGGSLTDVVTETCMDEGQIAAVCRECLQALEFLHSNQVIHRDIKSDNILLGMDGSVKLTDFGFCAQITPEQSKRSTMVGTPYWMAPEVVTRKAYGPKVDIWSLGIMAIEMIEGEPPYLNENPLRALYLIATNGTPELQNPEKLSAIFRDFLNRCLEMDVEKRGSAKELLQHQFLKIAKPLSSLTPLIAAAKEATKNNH
Chain of Casein kinase I isoform gamma-3 (Q9Y6M4 whole entry K91E, the tested form may be a part, canonical isoform): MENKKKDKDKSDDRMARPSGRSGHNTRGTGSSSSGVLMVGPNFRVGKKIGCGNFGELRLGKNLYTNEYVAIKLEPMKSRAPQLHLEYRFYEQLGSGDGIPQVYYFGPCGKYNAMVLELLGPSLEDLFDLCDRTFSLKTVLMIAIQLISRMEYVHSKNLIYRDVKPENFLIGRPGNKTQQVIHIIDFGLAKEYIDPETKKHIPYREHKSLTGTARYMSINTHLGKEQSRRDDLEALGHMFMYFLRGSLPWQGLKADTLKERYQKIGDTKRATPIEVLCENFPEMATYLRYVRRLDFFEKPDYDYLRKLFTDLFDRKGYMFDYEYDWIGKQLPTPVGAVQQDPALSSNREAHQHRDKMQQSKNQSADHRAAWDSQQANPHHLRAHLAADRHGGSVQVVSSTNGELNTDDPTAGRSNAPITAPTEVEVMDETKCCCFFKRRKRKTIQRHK
Chain of Testis-specific serine/threonine-protein kinase 2 (Q96PF2 whole entry): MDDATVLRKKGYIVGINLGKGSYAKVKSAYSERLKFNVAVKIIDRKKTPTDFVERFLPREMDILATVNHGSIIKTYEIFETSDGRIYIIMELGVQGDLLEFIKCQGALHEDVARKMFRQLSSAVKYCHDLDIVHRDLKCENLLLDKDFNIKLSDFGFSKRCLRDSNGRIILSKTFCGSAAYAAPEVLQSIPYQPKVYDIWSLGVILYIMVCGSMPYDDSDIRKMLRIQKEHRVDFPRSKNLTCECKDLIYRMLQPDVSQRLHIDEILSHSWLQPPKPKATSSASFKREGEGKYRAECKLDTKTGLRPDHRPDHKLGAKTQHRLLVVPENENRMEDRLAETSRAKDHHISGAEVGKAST
Chain of Hepatocyte growth factor receptor (P08581 whole entry, looked up, stated change not applied): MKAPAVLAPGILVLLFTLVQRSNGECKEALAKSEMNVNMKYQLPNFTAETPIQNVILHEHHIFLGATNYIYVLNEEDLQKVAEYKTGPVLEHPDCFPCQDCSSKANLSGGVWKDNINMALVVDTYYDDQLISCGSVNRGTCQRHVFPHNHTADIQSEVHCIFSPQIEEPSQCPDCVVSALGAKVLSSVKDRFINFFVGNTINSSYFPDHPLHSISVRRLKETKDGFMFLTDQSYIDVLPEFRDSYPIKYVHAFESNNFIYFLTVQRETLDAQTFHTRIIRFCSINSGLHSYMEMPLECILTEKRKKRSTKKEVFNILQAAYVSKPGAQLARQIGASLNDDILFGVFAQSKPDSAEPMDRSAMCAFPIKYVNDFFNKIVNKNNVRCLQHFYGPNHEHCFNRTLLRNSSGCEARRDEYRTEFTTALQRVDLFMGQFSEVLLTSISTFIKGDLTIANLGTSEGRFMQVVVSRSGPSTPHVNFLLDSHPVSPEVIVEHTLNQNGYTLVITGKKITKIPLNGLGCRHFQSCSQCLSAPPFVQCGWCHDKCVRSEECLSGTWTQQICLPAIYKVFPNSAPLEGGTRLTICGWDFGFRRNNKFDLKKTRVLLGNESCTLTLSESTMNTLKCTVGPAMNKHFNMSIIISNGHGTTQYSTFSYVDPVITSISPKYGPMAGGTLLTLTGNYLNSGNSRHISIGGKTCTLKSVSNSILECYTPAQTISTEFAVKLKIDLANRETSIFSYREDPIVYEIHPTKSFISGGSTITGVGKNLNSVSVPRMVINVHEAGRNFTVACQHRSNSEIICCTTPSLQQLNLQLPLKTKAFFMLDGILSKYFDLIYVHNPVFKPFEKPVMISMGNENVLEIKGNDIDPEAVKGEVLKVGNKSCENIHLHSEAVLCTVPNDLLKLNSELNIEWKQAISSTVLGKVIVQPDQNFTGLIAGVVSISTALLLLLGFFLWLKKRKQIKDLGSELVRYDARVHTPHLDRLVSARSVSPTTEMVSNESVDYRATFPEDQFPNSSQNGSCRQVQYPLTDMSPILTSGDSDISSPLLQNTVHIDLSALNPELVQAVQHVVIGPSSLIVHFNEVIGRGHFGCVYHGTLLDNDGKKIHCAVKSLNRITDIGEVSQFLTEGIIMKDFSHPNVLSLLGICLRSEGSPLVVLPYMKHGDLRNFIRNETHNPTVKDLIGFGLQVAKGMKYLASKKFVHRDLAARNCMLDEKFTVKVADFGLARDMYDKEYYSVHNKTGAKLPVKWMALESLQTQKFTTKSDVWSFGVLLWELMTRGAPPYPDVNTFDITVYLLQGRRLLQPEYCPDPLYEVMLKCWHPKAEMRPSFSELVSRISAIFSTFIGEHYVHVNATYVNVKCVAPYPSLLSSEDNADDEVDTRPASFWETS

CN(C)c1ccc(C(=O)Nc2cccc(NC(=O)COc3ccc4c(=O)ccoc4c3)c2)cc1
IC50 [1]: 1070 nM | logD at 48 h [2]: 2.65 | half-life [3]: 8.05 min | CLint scaled [4]: 216 mL/min/kg | IC50 [5]: > 10 µM | IC50 [6]: > 10 µM | IC50 [7]: > 10 µM | IC50 [8]: > 10 µM | IC50 [9]: > 10 µM | IC50 [10]: > 10 µM | IC50 [11]: > 10 µM | IC50 [12]: > 10 µM | IC50 [13]: > 10 µM | IC50 [14]: > 10 µM | IC50 [15]: > 10 µM | IC50 (Insulin receptor): > 10 µM | IC50 [16]: > 10 µM | IC50 [17]: > 10 µM | IC50 [18]: > 10 µM | IC50 [19]: > 10 µM | IC50 [20]: > 10 µM | IC50 [21]: > 10 µM | IC50 [22]: > 10 µM | IC50 [23]: > 10 µM | IC50 [24]: > 10 µM | IC50 [25]: > 10 µM | IC50 [26]: > 10 µM
